Source: US20030092686A1, “Method of determining the initial dose of vitamin D compounds” (priority 2000, published 2003)

System: adult ESRD patients
Assay: Double-blind, randomized, 12-week trial of starting dose of paricalcitol injection (baseline PTH/80 vs 0.04 mcg/kg)
Assay type: in vivo, human
Conditions: for Incidences of Ca × P > 75: 2 consecutive occurrences of CaxP>75; for Median Number of Dose Adjustments: adjustments to achieve the first of 4 consecutive ≧30% decreases from baseline PTH; for Incidence(s) of Hypercalcemia: single episode, Ca>11.5 miligram/deciliter, 3x weekly, 12-week trial; for Median Days to First of 4 ≧ 30% PTH Decreases: statistically significant (P = 0.0306)
Experimental: A double-blind, randomized, 12-week trial was conducted in 125 adult ESRD patients to determine if a starting dose of paricalcitol injection using baseline PTH/80 was equivalent in the rate of hypercalcemia (single episode, Ca>11.5 miligram/deciliter) compared to the approved initial dose (0.04 mcg/kg, dry weight). Patients were randomized (1:1) to doses by either PTH/80 or 0.04 mcg/kg. Baseline demographics and laboratory values were similar between groups. Dosing occurred 3×weekly per patient hemodialysis schedule. Dose increases of 2 mcg could occur once per 2 weeks; decreases of 2 mcg could occur once per week. Patients completed the study by reducing PTH≧30% from baseline for 4 consecutive weekly measurements, or by having a single incidence of hypercalcemia, or by completing 12 weeks of treatment. The primary analysis was a comparison of the incidence of hypercalcemia between groups. Secondary analyses included the time in days to the first of 4 consecutive≧30% decreases from baseline PTH levels, the difference in the number of dose adjustments to achieve the first of 4 consecutive≧30% decreases from baseline PTH levels, and the difference in the incidence rates of 2 consecutive occurrences of CaxP>75.

[1] = initial dose 0.04 mcg/kg dry weight

C[C@H](/C=C/[C@H](C)C(C)(C)O)[C@H]1CC[C@H]2/C(=C/C=C3C[C@@H](O)C[C@H](O)C3)CCC[C@]12C [paricalcitol injection, Paricalcitol] was tested, and the “Mean PTH Decrease (SE)” value [1] was −193 (24.59) pg/mL, the “Incidences of Ca × P > 75” value [1] was 2 and the “Median Number of Dose Adjustments” value [1] was 3. For the same compound, the “Incidence(s) of Hypercalcemia” value [1] was 0, the “Median Days to First of 4 ≧ 30% PTH Decreases” value [1] was 45 days and the “Mean PTH Decrease (SE)” value (initial dose baseline PTH/80) was −259 (24.01) pg/mL. For the same compound, the “Incidences of Ca × P > 75” value (initial dose baseline PTH/80) was 5, the “Median Number of Dose Adjustments” value (initial dose baseline PTH/80) was 2 and the “Incidence(s) of Hypercalcemia” value (initial dose baseline PTH/80) was 0. The “Median Days to First of 4 ≧ 30% PTH Decreases” value (initial dose baseline PTH/80) was 31 days.
